Values after ≈ are worked out from the molar mass of the structure shown.
settings: buffer; pH 7.4; 200.0 µM

| Compound | solubility kinetic |
| --- | --- |
| COc1nc2ccccc2nc1N1CCN(C)CC1 | 38.4 µg/mL (≈ 149 µM) |
| COc1ccc(NC(=O)Cn2c([N+](=O)[O-])cnc2C)cc1Cl | 2 µg/mL (≈ 6.16 µM) |
| CC(C)c1ccc(C(=O)CN2C(=O)NC3(CCc4ccccc43)C2=O)cc1 (stereo not given) | 7.1 µg/mL (≈ 19.6 µM) |
| O=C1NC(=O)C(=Cc2ccc(Sc3ccccc3)o2)C(=O)N1 | 40.5 µg/mL (≈ 129 µM) |
| N#Cc1ccsc1NC(=O)CCN1C(=O)C2CCCCC2C1=O (stereo not given) | > 49.7 µg/mL |
| CCc1c(O)nc(SC2CC(=O)N(c3ccc(F)c(Cl)c3)C2=O)[nH]c1=O (stereo not given) | 55.7 µg/mL (≈ 140 µM) |
| NC1=C(Br)C(=O)c2ccccc2C1=O | 37.3 µg/mL (≈ 148 µM) |
| O=C(COC(=O)c1ccco1)NCc1ccccc1Cl | > 44.1 µg/mL |
| Cc1ccc(NC(=O)COc2cccc3ccccc23)c(O)c1 | 3.8 µg/mL (≈ 12.4 µM) |
| O=C(CN1CCOCC1)Nc1ccc(NC(=O)c2ccccc2F)cc1 | > 53.6 µg/mL |
| Cc1c(C(=O)c2ccc(F)cc2F)c2ccccn2c1CCC#N | 44.4 µg/mL (≈ 137 µM) |
| N/C(=N\OC(=O)c1cccc(F)c1)c1cccc([N+](=O)[O-])c1 | 1.3 µg/mL (≈ 4.29 µM) |
| Cn1cnc(S(=O)(=O)N2CCN(c3ccccc3)CC2)c1 | 34.3 µg/mL (≈ 112 µM) |
| CCOc1ccc(NC(=O)CCN2CCN(C)CC2)cc1 | > 43.7 µg/mL |
| Cc1cccnc1NC(N)=S | > 25.1 µg/mL |
| Cc1cc(=O)n2c(n1)NC(Nc1cccc(C)c1C)=NC2c1ccccc1 (stereo not given) | 1.7 µg/mL (≈ 4.73 µM) |
| CCOC(=O)CNC(=S)N(Cc1ccccc1)Cc1cccs1 | 19.8 µg/mL (≈ 56.8 µM) |
| O=C(Nc1ccc([N+](=O)[O-])cc1)C1COc2ccccc2O1 (stereo not given) | 0.9 µg/mL (≈ 3 µM) |
| O=c1[nH]c(/C=C/c2cccc([N+](=O)[O-])c2)c([N+](=O)[O-])c(=O)[nH]1 | 34.8 µg/mL (≈ 114 µM) |
| CCCN(CC1CC1)CC(O)c1ccccc1.O=C(O)C(=O)O (stereo not given) | > 48.5 µg/mL |
| CC(=O)C(C(C)=O)C(c1ccccc1)c1nc2ccccc2[nH]c1=O (stereo not given) | 0.9 µg/mL (≈ 2.69 µM) |
| CC(=O)c1cccc(NC(=O)COC(=O)c2ccccc2C)c1 | 4.9 µg/mL (≈ 15.7 µM) |
| N#C/C(=C\c1cccs1)C(=O)Nc1ccccn1 | 12.8 µg/mL (≈ 50.1 µM) |
| CC(C)C(NC(=O)c1ccccc1F)C(=O)NCC(c1ccco1)N1CCCCC1 (stereo not given) | > 62.3 µg/mL |

| Compound | solubility kinetic |
| --- | --- |
| C=CCOc1ccc(C(=O)Nc2ccc3c(c2)n(C)c(=O)n3C)cc1 | 11.4 µg/mL (≈ 33.8 µM) |
| CCCc1nc(SCC(=O)NC2CC2)c2c(C)c(C)sc2n1 | 0.8 µg/mL (≈ 2.38 µM) |
| Cc1cc(S(=O)(=O)NCCN2CCOCC2)ccc1Cl | > 47.8 µg/mL |
| CN(CC(=O)Nc1ccc(Cl)c(C(F)(F)F)c1)C(=O)c1cnccn1 | 13.7 µg/mL (≈ 36.8 µM) |
| CCOC(=O)c1ccc(NC(=O)CN2C(=O)CN(C(C)=O)C2=S)cc1 | 51.8 µg/mL (≈ 143 µM) |
| O=C(COC(=O)COc1ccc(Cl)cc1)NCc1ccc2c(c1)OCO2 | 2.3 µg/mL (≈ 6.09 µM) |
| CC(Sc1ncnc2sc(-c3ccccc3)cc12)C(N)=O (stereo not given) | 0.8 µg/mL (≈ 2.54 µM) |
| CCC(C)c1ccc(NC(=S)NCc2ccccn2)cc1 (stereo not given) | 38.5 µg/mL (≈ 129 µM) |
| CCOc1ccc(C(=O)N2CCN(c3ccccc3)CC2)cc1 | 46.5 µg/mL (≈ 150 µM) |
| CSc1ccc(CNC(=O)c2c(C)noc2C)s1 | 39.8 µg/mL (≈ 141 µM) |
| CCCN1CCOC(CC(=O)Nc2ccc([N+](=O)[O-])cc2)C1=O (stereo not given) | 38 µg/mL (≈ 118 µM) |
| O=C(Nc1ccccc1)N1CCc2c([nH]c3ccccc23)C1C(F)(F)F (stereo not given) | 1.8 µg/mL (≈ 5.01 µM) |
| CC1CCc2[nH]c3ccc(C(=O)O)cc3c2C1 (stereo not given) | > 34.4 µg/mL |
| CS(=O)(=O)Nc1ccccc1C(=O)OCC(=O)NC1CC1 | > 46.9 µg/mL |
| CN(C)C(=O)Oc1cccc(NC(=O)c2ccccc2C(F)(F)F)c1 | 37.9 µg/mL (≈ 108 µM) |
| CCn1c(=O)c(-c2nc3ccccc3[nH]2)c(O)c2ccccc21 | < 0.2 µg/mL |
| CCNC(=O)NC(=O)C(C)OC(=O)CCCc1nc2ccccc2s1 (stereo not given) | 49.4 µg/mL (≈ 136 µM) |
| CCNc1nc(SC(C)C(=O)Nc2ccccc2)nc(N(C)C)n1 (stereo not given) | 3.4 µg/mL (≈ 9.81 µM) |
| O=C(Nc1ccc(Cl)cn1)c1ccc2nccnc2c1 | 3.6 µg/mL (≈ 12.6 µM) |
| COC1c2ccccc2C(=O)N1CCc1ccc(Cl)cc1 (stereo not given) | 41.7 µg/mL (≈ 138 µM) |
| O=C(NN1CCOCC1)c1ccc(Br)s1 | > 43.7 µg/mL |
| S=C(NCCc1cccc(Cl)c1)NC1CCCCC1 | 10.5 µg/mL (≈ 35.4 µM) |
| O=C(Nc1nc2ccccc2n1CCN1CCOCC1)c1ccc(Cl)cc1 | 0.9 µg/mL (≈ 2.34 µM) |
| Cc1ccc(CC2SC(N)=NC2=O)cc1 (stereo not given) | > 33 µg/mL |

| Compound | solubility kinetic |
| --- | --- |
| CCOC(=O)c1sc(NC(=O)Cc2ccc(F)cc2)nc1C | 3.8 µg/mL (≈ 11.8 µM) |
| Cc1cc(C)nc(Nc2ccccc2F)n1.Cl | 26.4 µg/mL |
| CCS(=O)(=O)N1CCC(C(=O)O)CC1 | > 33.2 µg/mL |
| COc1ccc(/C=C/C(=O)NC(=S)Nc2ccccn2)cc1 | 1.8 µg/mL (≈ 5.74 µM) |
| CC1CN(CCC(=O)Nc2ccccc2F)CC(C)O1 (stereo not given) | > 42.1 µg/mL |
| COC(=O)c1cc(C(=O)CC(C)C)c[nH]1 | > 31.4 µg/mL |
| O=[N+]([O-])c1ccccc1S(=O)(=O)Nc1ccc(S(=O)(=O)N2CCCC2)cc1 | > 61.7 µg/mL |
| CN1CCN(CC#Cc2ccccc2)CC1CCO (stereo not given) | > 38.8 µg/mL |
| CC(=O)Nc1ccc(S(=O)(=O)NCCC(=O)Nc2cc(C)ccn2)cc1 | > 56.5 µg/mL |
| O=C(OCC(=O)N1CCOCC1)c1ccccc1OCc1ccccc1Cl | 54.9 µg/mL (≈ 141 µM) |
| Cc1ccc(N2CC(O)Cn3c2nc2c3c(=O)[nH]c(=O)n2C)cc1 (stereo not given) | 16.2 µg/mL (≈ 49.5 µM) |
| CCCCn1c(CCC(=O)O)nc2cc(S(=O)(=O)N3CCCC3)ccc21 | > 56.9 µg/mL |
| O=C(Nc1ncccn1)C12CC3CC(CC(C3)C1)C2 | > 38.6 µg/mL |
| COc1ccc(CCCC(=O)Nc2cc(C)ccc2OC)cc1 | 20 µg/mL (≈ 63.8 µM) |
| O=S(=O)(NC1CC2CCC1C2)c1ccc(Cl)cc1 (stereo not given) | 38.4 µg/mL (≈ 134 µM) |
| Cn1c(SCc2cccc(Br)c2)nc2ccccc2c1=O | < 0.4 µg/mL |
| CC1=NOC(=O)/C1=C\c1ccccc1 | 24.4 µg/mL (≈ 130 µM) |
| Cc1ccc(OCC(=O)Nc2ccc(NC(=O)c3ccccc3)c(C)c2)cc1 | 1 µg/mL (≈ 2.67 µM) |
| COc1ccc(NC(=O)NCCc2ccc(Cl)cc2)cc1OC | < 0.4 µg/mL |
| Cn1ncc(Br)c1C(=O)N1CCCC1 | > 38.7 µg/mL |
| CCCCCn1c(N2CCCC2)nc2c1c(=O)n(C)c(=O)n2C | > 47.9 µg/mL |
| Cc1c(C(=O)O)[nH]c2c1C(=O)CC(c1ccc(C(C)(C)C)cc1)C2 (stereo not given) | > 48.8 µg/mL |
| CCOc1ccccc1NC(=O)CCCNC(=O)c1ccc(Cl)cc1 | 50.4 µg/mL (≈ 140 µM) |
| CC(NC(=O)CN1CCCC1)c1ccccc1 (stereo not given) | > 34.8 µg/mL |

| Compound | solubility kinetic |
| --- | --- |
| CCn1c(C)cc(C(=O)COC(=O)c2ccccc2[N+](=O)[O-])c1C | 15.3 µg/mL (≈ 46.3 µM) |
| O=C(CCNc1ccccc1)c1cccc([N+](=O)[O-])c1 | 32.7 µg/mL (≈ 121 µM) |
| COc1ccccc1OCCC(=O)NCc1ccc2c(c1)OCO2 | 45.1 µg/mL (≈ 137 µM) |
| COc1ccc(OC)c2c1sc(=NC(=O)C1COc3ccccc3O1)n2C (stereo not given) | < 0.4 µg/mL |
| CCN(CC)CCC(=O)c1ccc(F)cc1.Cl | > 39 µg/mL |
| CCCCCc1ccc(S(=O)(=O)Nc2cc(C)ccn2)cc1 | < 0.3 µg/mL |
| COc1ccc(NCC(O)Cn2c(C)c(C)c3ccccc32)cc1 (stereo not given) | 10.2 µg/mL (≈ 31.4 µM) |
| NC(=O)C1CCCc2c1n(Cc1ccccc1)c1ccccc21 (stereo not given) | 22.3 µg/mL (≈ 73.3 µM) |
| CCOC(=O)N1CCN(CCC(=O)Nc2cc(C)ccc2C)CC1 | > 50 µg/mL |
| Nc1ccc(S(=O)(=O)NC2=NCCCCC2)cc1N | > 42.4 µg/mL |
| Cc1ccc(C(=O)COC(=O)c2cn3ccccc3n2)cc1 | 4.1 µg/mL (≈ 13.9 µM) |
| O=c1oc2c(O)cccc2cc1-c1nc2ccccc2[nH]1 | 1.1 µg/mL (≈ 3.95 µM) |
| O=C(Cc1ccc(Cl)cc1)Nc1ccc(Br)cn1 | 1.4 µg/mL (≈ 4.3 µM) |
| C=CCOC(=O)Cn1cnc2c(sc3nc(C)cc(C)c32)c1=O | 3.2 µg/mL (≈ 9.72 µM) |
| O=C(Nc1ccccc1N1CCOCC1)c1ccc([N+](=O)[O-])s1 | 4.6 µg/mL (≈ 13.8 µM) |
| O=C(Oc1ccc(Cl)c2cccnc12)c1cccnc1 | 30 µg/mL (≈ 105 µM) |
| CC(=O)O/C(=C\c1cn(C(C)=O)c2ccccc12)C(=O)O | > 43.1 µg/mL |
| O=C(c1cc([N+](=O)[O-])[nH]n1)N1CCSCC1 | > 36.3 µg/mL |
| O=C(O)c1cccc(N(CCO)CCO)c1 | > 33.8 µg/mL |
| Cc1[nH]c2ccccc2c1/C=N/NC(=O)CNC(=O)c1ccco1 | > 48.7 µg/mL |
| COc1ccc(CNC(=O)c2cc3c(=O)[nH]c4ccccc4c3n2C)cc1 | < 0.3 µg/mL |
| O=C(Oc1ccccc1)N1CCOCC1 | > 31.1 µg/mL |
| O=C(O)c1cc(S(=O)(=O)NCCCN2CCCC2=O)ccc1Cl | > 54.1 µg/mL |
| Cc1ccc(N2CC(C(=O)N3CCCCC3)CC2=O)cc1C (stereo not given) | > 45.1 µg/mL |

| Compound | solubility kinetic |
| --- | --- |
| O=C1c2cccc3cccc(c23)N1Cc1cccc(F)c1 | 2.6 µg/mL (≈ 9.38 µM) |
| COc1ccc(CNC(=O)CCSCc2ccc(C)cc2)cc1 | 16.5 µg/mL (≈ 50.1 µM) |
| Cl.c1ccc(-c2ccc(OCCN3CCOCC3)cc2)cc1 | 29.8 µg/mL |
| O=C(c1ccccc1)c1nccn1-c1ccc(Cl)nn1 | > 42.7 µg/mL |
| Cc1cc(C)nc(NC(=O)c2cccs2)c1 | 22.6 µg/mL (≈ 97.3 µM) |
| O=C(Nc1cccc(S(=O)(=O)N2CCCCCC2)c1)c1ccc(Cl)nc1 | 8.2 µg/mL (≈ 20.8 µM) |
| COC(=O)C1=C(Nc2ccccc2NC(=O)c2ccccc2C(=O)O)CSC1 | > 59.8 µg/mL |
| CCNS(=O)(=O)c1ccc(NC(=S)N2CCc3ccccc32)cc1 | 1.2 µg/mL (≈ 3.32 µM) |
| Oc1c(CN2CCOCC2)ccc2ccccc12 | 16.9 µg/mL (≈ 69.5 µM) |
| CN1CCN(CC(=O)Nc2c(C(=O)c3ccccc3)oc3ccccc23)CC1 | 48.4 µg/mL (≈ 128 µM) |
| Cc1cccc(NC(=O)CCc2ccccc2)c1C | 11.8 µg/mL (≈ 46.6 µM) |
| O=C(C(=O)N1CCCCCC1)c1c[nH]c2ccccc12 | > 40.5 µg/mL |
| Nn1c(Nc2ccc(Cl)cc2)nncc1=O | > 35.6 µg/mL |
| Cc1ccc(C(=O)OCC(=O)Nc2cc(C(C)(C)C)no2)c(C)c1 | 3.1 µg/mL (≈ 9.38 µM) |
| O=C1CC(C(=O)NC2CCCCC2)C2(CCCCC2)O1 (stereo not given) | > 41.9 µg/mL |
| CN(CCOc1ccccc1)CC(=O)Nc1cccc(C#N)c1 | 43 µg/mL (≈ 139 µM) |
| CN(CC(=O)NCc1ccncc1)S(=O)(=O)c1ccc(Cl)cc1 | > 53.1 µg/mL |
| Cc1ccccc1NC(=O)Cc1cccs1 | > 34.7 µg/mL |
| COc1ccccc1C(c1c(O)nc(SC)[nH]c1=O)c1c(O)nc(SC)[nH]c1=O | > 65.2 µg/mL |
| C=CCNc1cc(=O)n(Cc2ccccc2)c(=O)[nH]1 | 29.7 µg/mL (≈ 115 µM) |
| O=C(CSc1nc2cc(Cl)ccc2s1)NCC1CCCO1 (stereo not given) | > 51.4 µg/mL |
| O=C1CN(C(=O)COc2ccc(Br)cc2)c2ccccc2N1 | 10.3 µg/mL (≈ 28.5 µM) |
| CC(C)CNC(=O)COC(=O)c1c2c(nc3ccccc13)CCC2 | > 49 µg/mL |
| COc1cc(C)ccc1OC(C)C(=O)Nc1ccc(N2CCCCC2)cc1 (stereo not given) | 2.7 µg/mL (≈ 7.33 µM) |
